Reference: article PMC3269379, “The Host-Pathogen interaction of human cyclophilin A and HIV-1 Vpr requires specific N-terminal and novel C-terminal domains” (BMC Structural Biology, 2011)
Entries after “also recorded” stand apart in the source; their conditions may differ. Where a SMILES comes first, the peptide text is derived from it.

Assays:
CypA [1] = target: T1, CypA (Homo sapiens, UniProt P62937); assay: SPR binding of Vpr and Vpr peptides to immobilized CypA; conditions: for binding to CypA in SPR sensorgrams (in words): peptides 0-8 μM over CM5 chip with 150 RU CypA (Figure 2)
T1 construct: made in house
Description: SPR [42-44] measurements were performed at 25°C on a Biacore T100 instrument (Biacore AB, Uppsala, Sweden) equipped with CM5 research-grade sensor chips. CypA was immobilized to 150, 180, 918 and 5003 RU, using standard amine-coupling chemistry. The reference flow cells were treated correspondingly except for CypA immobilization. The synthetic full length Vpr, as well as fragments and mutants thereof, were dissolved at four different concentrations in the running buffer (HBS-EP buffer pH 7.4; 10 mM HEPES, 150 mM NaCl, 3.4 mM EDTA and 0.005% surfacant). The samples were injected over the flow cells at a flow rate of 30 μl/min. Data were collected at 2.5 Hz during 60 s association and 180 s or 240 s dissociation phases, and were automatically corrected for bulk buffer effects and non-specific binding of Vpr peptides to the chip matrix. All SPR data was acquired from two individual series of experiments using four different analyte concentrations with a duplicate injection of one of the individual concentrations.
Affinity, association and dissociation rate constants were obtained from sensorgrams by the Biacore T100 evaluation software version 2.0.1 in accordance with the global curve fit model. Sensorgram data for the four different concentrations were fitted to several binding models including 1:1 (Langmuir) binding model (A+B ↔ AB), two-state reaction (conformational change) model (A+B ↔ AB ↔ AB*), heterogeneous ligand (HL) model (interaction one: A+B1 ↔ AB1; interaction two: A+B2 ↔ AB2) and bivalent analyte (BA) model (A+B ↔ AB; AB+B↔ABB). Kinetic constants were calculated for the best fitted model.

CypA [2] = target: T1, CypA; assay: Isothermal titration calorimetry of Vpr^75-90 binding to CypA; conditions: ITC; mean ± S.E of two titrations; read-out: Ka (converted)
Description: ITC was performed in a VP-ITC titration calorimeter (MicroCal Inc.). […] The mean of the heat from the last 5 injections was subtracted from the raw data to correct for experimental heat dilution. The binding isotherms were fitted to a one site binding model using the Origin v7 software (OriginLab). Chi-square minimization was performed iteratively to obtain the best-fit parameters.

T1 sequence (P62937 whole entry): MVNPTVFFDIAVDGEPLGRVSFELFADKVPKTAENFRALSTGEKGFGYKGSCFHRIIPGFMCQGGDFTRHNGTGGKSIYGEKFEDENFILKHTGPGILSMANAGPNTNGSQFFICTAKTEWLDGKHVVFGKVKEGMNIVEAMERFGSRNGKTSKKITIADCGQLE

Q: With `CC[C@H](C)[C@H](NC(=O)CNC(=O)[C@@H](NC(=O)[C@H](CCCNC(=N)N)NC(=O)[C@H](CO)NC(=O)[C@H](Cc1c[nH]cn1)NC(=O)[C@H](CCC(N)=O)NC(=O)[C@H](CS)NC(=O)CN)[C@@H](C)CC)C(=O)N[C@H](C(=O)N[C@@H](CCCNC(=N)N)C(=O)N[C@@H](CCC(N)=O)C(=O)N[C@@H](CCCNC(=N)N)C(=O)N[C@@H](CCCNC(=N)N)C(=O)N[C@@H](C)C(=O)N[C@@H](CCCNC(=N)N)C(=O)O)[C@@H](C)CC` [Vpr^75-90 (R76Q, V83I, T84I)] (H-GCQHSRIGIIRQRRAR-OH) as the molecule, how does the Kd (CypA [1]) read?
A: 4700 ± 2600 nM

Q: How did the “binding to CypA in SPR sensorgrams (in words)” value (CypA [1]) turn out when `CC[C@H](C)[C@H](NC(=O)[C@H](CCCNC(=N)N)NC(=O)[C@H](Cc1ccccc1)NC(=O)[C@H](Cc1c[nH]cn1)NC(=O)[C@@H](NC(=O)[C@@H](N)Cc1ccccc1)[C@@H](C)CC)C(=O)NCC(=O)N[C@@H](CS)C(=O)N[C@@H](CCCNC(=N)N)C(=O)N[C@@H](Cc1c[nH]cn1)C(=O)O` [Vpr^69-78] (H-FIHFRIGCRH-OH; N-terminus and C-terminus assumed) was run?
A: interacted only weakly

Q: With `CC[C@H](C)[C@H](N)C(=O)NCC(=O)N[C@H](C(=O)N[C@H](C(=O)N[C@@H](CCCNC(=N)N)C(=O)N[C@@H](CCC(N)=O)C(=O)N[C@@H](CCCNC(=N)N)C(=O)N[C@@H](CCCNC(=N)N)C(=O)N[C@@H](C)C(=O)N[C@@H](CCCNC(=N)N)C(=O)O)[C@@H](C)O)C(C)C` [Vpr^81-90] (H-IGVTRQRRAR-OH; N-terminus and C-terminus assumed) as the molecule, how does the “binding to CypA in SPR sensorgrams (in words)” value (CypA [1]) read?
A: interacted only weakly

Q: For `CC[C@H](C)[C@H](NC(=O)CNC(=O)[C@@H](NC(=O)[C@H](C)NC(=O)[C@H](CO)NC(=O)[C@H](Cc1c[nH]cn1)NC(=O)[C@H](CCC(N)=O)NC(=O)[C@H](CS)NC(=O)CN)[C@@H](C)CC)C(=O)N[C@H](C(=O)N[C@@H](CCCNC(=N)N)C(=O)N[C@@H](CCC(N)=O)C(=O)N[C@@H](CCCNC(=N)N)C(=O)N[C@@H](CCCNC(=N)N)C(=O)N[C@@H](C)C(=O)N[C@@H](CCCNC(=N)N)C(=O)O)[C@@H](C)CC` [Vpr^75-90 (R76Q, V83I, R80A, T84I)] (H-GCQHSAIGIIRQRRAR-OH), which Kd (CypA [1]) is on record?
A: 2700 ± 1900 nM

Q: For `CC[C@H](C)[C@H](NC(=O)[C@H](CCCNC(=N)N)NC(=O)[C@H](CO)NC(=O)[C@H](Cc1c[nH]cn1)NC(=O)[C@H](CCCNC(=N)N)NC(=O)[C@H](CS)NC(=O)CN)C(=O)NCC(=O)N[C@H](C(=O)N[C@H](C(=O)N[C@@H](CCCNC(=N)N)C(=O)N[C@@H](CCC(N)=O)C(=O)N[C@@H](CCCNC(=N)N)C(=O)N[C@@H](CCCNC(=N)N)C(=O)N[C@@H](C)C(=O)N[C@@H](CCCNC(=N)N)C(=O)O)[C@@H](C)O)C(C)C` [Vpr^75-90], which Kd (CypA [2]) is on record?
A: 76.9 nM

Q: How did the “binding to CypA in SPR sensorgrams (in words)” value (CypA [1]) turn out when `CC[C@H](C)[C@H](NC(=O)[C@H](CCCNC(=N)N)NC(=O)[C@H](CO)NC(=O)[C@H](Cc1c[nH]cn1)NC(=O)[C@H](CCCNC(=N)N)NC(=O)[C@H](CS)NC(=O)CN)C(=O)NCC(=O)N[C@H](C(=O)N[C@H](C(=O)O)[C@@H](C)O)C(C)C` [Vpr^75-84] (H-GCRHSRIGVT-OH; N-terminus and C-terminus assumed) was run?
A: interacted only weakly; also recorded: fails to bind

Q: For `C[C@H](NC(=O)CNC(=O)[C@H](CC(N)=O)NC(=O)[C@H](CCCNC(=N)N)NC(=O)[C@H](C)NC(=O)[C@H](CCCNC(=N)N)NC(=O)[C@@H](N)CCCNC(=N)N)C(=O)N[C@@H](CO)C(=O)N[C@@H](CCCNC(=N)N)C(=O)N[C@@H](CO)C(=O)O` [Vpr^87-96] (H-RRARNGASRS-OH; N-terminus and C-terminus assumed), which “binding to CypA in SPR sensorgrams (in words)” value (CypA [1]) is on record?
A: interacted only weakly

Q: How did the “binding to CypA in SPR sensorgrams, comparison (in words)” value (CypA [1]; analyte 1-8 μM, chip with 180 RU CypA (Figure 1B, C)) turn out when “Vpr^30-40: N-terminal peptide containing the N-terminal binding region of Vpr to CypA (AVRHFPRIWLH)” was run?
A: lower affinity
